# Experimental data taken from the supplement of paper PMC10307832.
# Legend:
# Assay in all cases: relative viability (nuclei count vs DMSO), 5 days (fraction); higher = more cells survive
# [1] = compound: CN(C)CC1=CC(=CC=C1)N=C(C2=CC=CC=C2)C3=C(NC4=C3C=CC(=C4)C(=O)N(C)C)O
# Procedure, shortened: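 Nuclei counted with MetaXpress define viability as the ratio of treated to vehicle wells, given as a median across plates. The lung cancer cell lines were in 1536-well plates, pinned with five √10-spaced library-drug doses and imaged at 4× after 5 days and Hoechst staining. Plates passed with control CV below 25% and at least one doubling.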
# [2] = compound: CN(C)CC1=CC(=CC=C1)N=C(C2=CC=CC=C2)C3=C(NC4=C3C=CC(=C4)C(=O)N(C)C)O + COc1cccc2cc(-c3nc([C@H]4CC[C@H](C(=O)O)CC4)n4ncnc(N)c34)[nH]c12 [OSI-027] (partner 0.5 µM)
# Procedure, shortened: (§1)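 One day after seeding in 1536-well plates, lung cancer cell lines were dosed by pin tool. Dosing was either single-drug or a fixed anchor-drug dose plus five library-drug doses (not always all listed) in √10 steps. After 5 days, nuclei were stained in one fix-and-stain step and counted on 4× images, and relative viability is the nuclei count of treated wells over that of vehicle wells, given as the median of duplicate plates.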
# [3] = compound: CN(C)CC1=CC(=CC=C1)N=C(C2=CC=CC=C2)C3=C(NC4=C3C=CC(=C4)C(=O)N(C)C)O + CC(=O)c1c(C)c2cnc(Nc3ccc(N4CCNCC4)cn3)nc2n(C2CCCC2)c1=O [Palbociclib] (partner 0.5 µM)
# Procedure, shortened: as §1
# [4] = compound: CN(C)CC1=CC(=CC=C1)N=C(C2=CC=CC=C2)C3=C(NC4=C3C=CC(=C4)C(=O)N(C)C)O + COc1cc2c(Oc3ccc(NC(=O)C4(C(=O)Nc5ccc(F)cc5)CC4)cc3F)ccnc2cc1OCCCN1CCOCC1 [Foretinib] (partner 0.25 µM)
# Procedure, shortened: as §1
Cell Line,relative viability ([1]; 0.08 µM),relative viability ([1]; 0.253 µM),relative viability ([1]; 0.8 µM),relative viability ([1]; 2.53 µM),relative viability ([1]; 8 µM),relative viability ([2]; first compound 0.08 µM),relative viability ([2]; first compound 0.253 µM),relative viability ([2]; first compound 0.8 µM),relative viability ([2]; first compound 2.53 µM),relative viability ([2]; first compound 8 µM),relative viability ([3]; first compound 0.08 µM),relative viability ([3]; first compound 0.253 µM),relative viability ([3]; first compound 0.8 µM),relative viability ([3]; first compound 2.53 µM),relative viability ([3]; first compound 8 µM),relative viability ([4]; first compound 0.08 µM),relative viability ([4]; first compound 0.253 µM),relative viability ([4]; first compound 0.8 µM),relative viability ([4]; first compound 2.53 µM),relative viability ([4]; first compound 8 µM)
201T,0.983,1.02,0.997,0.947,0.901,0.737,0.736,0.762,0.586,0.584,0.331,0.346,0.341,0.384,0.352,1.12,1.01,1.07,0.957,0.774
A-427,1.02,1.07,0.974,0.963,0.98,0.472,0.429,0.497,0.509,0.36,0.558,0.5,0.508,0.505,0.465,1.07,1.17,1.07,0.986,0.883
ABC-1,1.1,1.05,0.971,0.891,0.864,0.433,0.504,0.442,0.568,0.447,0.775,0.795,0.588,0.545,0.569,1.31,1.12,0.851,1,1.28
BEN,0.904,0.944,0.988,1,0.909,0.286,0.31,0.25,0.306,0.289,0.49,0.485,0.492,0.467,0.454,0.705,0.68,0.641,0.68,0.596
CAL-12T,1.07,1.02,1.09,1.01,1.12,0.736,0.746,0.686,0.849,0.527,0.436,0.431,0.208,0.524,0.43,1.09,1.22,1.44,0.864,1.29
COR-L23,1.04,1.02,1.09,0.95,0.967,0.722,0.788,0.818,0.741,0.732,0.321,0.329,0.379,0.269,0.326,1.08,0.972,1.03,0.88,0.925
COR-L 105,1.04,1.03,0.926,0.928,0.787,0.634,0.641,0.477,0.687,0.609,0.407,0.4,0.362,0.379,0.407,1.1,1.05,0.967,0.926,0.991
Calu-6,1.1,1.05,1.01,0.986,0.977,,,,,,,,,,,0.923,0.882,0.948,0.906,0.929
ChaGo-K-1,0.948,0.993,1.02,0.947,1.01,0.584,0.582,0.609,0.588,0.527,0.918,0.905,0.971,0.94,0.839,0.945,0.911,1.04,0.902,0.771
EBC-1,1.02,0.958,1.08,0.985,1.1,,,,,,,,,,,0.0943,0.112,0.0994,0.103,0.107
EKVX,0.981,0.919,0.819,1.05,0.996,0.718,0.726,0.781,0.764,0.739,0.392,0.385,,0.373,0.42,0.88,1.06,0.555,0.776,0.804
EMC-BAC-2,1.02,1.06,1.03,0.939,1.08,0.369,0.416,0.392,0.356,0.391,0.561,0.533,0.511,0.494,0.542,1.11,0.99,0.963,0.944,0.958
EPLC-272H,0.837,1,0.838,1.15,0.792,0.312,0.37,0.264,0.258,0.283,0.309,0.35,0.269,0.357,0.301,0.654,0.776,0.534,0.681,0.51
H3255,0.942,1.02,0.889,1.02,1.04,0.649,0.592,0.698,0.682,0.632,0.304,0.331,0.336,0.334,0.343,0.857,0.857,0.631,1.04,0.848
HARA,0.953,0.946,0.742,0.986,1.08,0.525,0.553,0.397,0.482,0.319,0.242,0.223,0.247,0.302,0.236,0.398,1.02,1.06,0.867,0.79
HCC-15,0.996,0.995,1.03,1.05,1.09,0.705,0.692,0.77,0.6,0.719,0.706,0.724,0.74,0.711,0.752,1.01,1.02,1.1,0.99,1
HCC-44,1.08,0.987,1.03,0.949,1.05,0.67,0.584,0.6,0.392,0.533,0.966,1.01,0.973,0.923,1,,,,,
